Assays:
[1] = Stability: moisture content with respect to time in thermo-hygrostat (Karl Fisher); format: physicochemical; settings: 25° C. and 60% RH, opened Petri dish
Procedure: To compare the stability of 10-ethoxy-8-(morpholinomethyl)-1,2,3,4-tetrahydrobenzo[h][1,6]naphthyridine-5(6H)-on dichloride dihydrate prepared in Example 1 and 10-ethoxy-8-(morpholinomethyl)-1,2,3,4-tetrahydrobenzo[h][1,6]naphthyridine-5(6H)-on dichloride anhydride prepared in Comparative Example 1, the following experiment was performed.
3.0 g of each of the compounds was put in a Petri dish, and the Petri dish was left in a thermo-hygrostat maintaining 25° C. and 60% RH with an opened state. The moisture content with respect to time was measured using a Karl Fisher apparatus and recorded. By measuring the change of the moisture content with respect to time under the above-described conditions, the stability of the dihydrate and that of the anhydride were compared. The results are illustrated in the following Table 1 and FIG. 1.

[2] = Stability of crystalline vs amorphous compound by change of XRD diffraction pattern (with moisture content); format: physicochemical; settings: for Change of XRD diffraction pattern with respect to time (in words): X-ray diffraction analysis
Procedure: For comparing the stability of the crystalline compound of Example 1 according to the present invention and the amorphous compound of Comparative Example 2, the following experiment was performed.
The stability of each of the crystalline compound of Example 1 according to the present invention and the amorphous compound of Comparative Example 2 was measured by measuring the change of a diffraction pattern through X-ray diffraction analysis (XRD).
For the amorphous compound of Comparative Example 2, accurate and specific XRD pattern of the amorphous type was not shown, however amorphous 10-ethoxy-8-(morpholinomethyl)-1,2,3,4-tetrahydrobenzo[h][1,6]naphthyridine-5(6H)-on dichloride obtained after freeze drying absorbs surrounding moisture during performing the XRD, thereby increasing the crystallinity and showing XRD peaks.
Meanwhile, the moisture content of the compound of Comparative Example 2 was 0.4% immediately after drying, and was increased to 5.2% after measuring XRD.

Compound	Change of the moisture content with respect to time (in words) [1]	Moisture content ([1]; 30 min)	Moisture content ([1]; 1 h)	Moisture content ([1]; 2 h)	Moisture content ([1]; 1 day)	Moisture content ([1]; 2 days)	Moisture content ([1]; initial state)	Change of XRD diffraction pattern with respect to time (in words) [2]	Moisture content ([2]; after measuring XRD)	Moisture content ([2]; immediately after drying)	Change of the moisture content with respect to time (in words) ([1]; dihydrate)	Moisture content ([1]; 30 min, dihydrate)	Moisture content ([1]; 1 h, dihydrate)	Moisture content ([1]; 2 h, dihydrate)	Moisture content ([1]; 1 day, dihydrate)	Moisture content ([1]; 2 days, dihydrate)	Moisture content ([1]; initial state, dihydrate)
CCOc1cc(CN2CCOCC2)cc2[nH]c(=O)c3c(c12)NCCC3 [Comparative Example 1, 10-ethoxy-8-(morpholinomethyl)-1,2,3,4-tetrahydrobenzo[h][1,6]naphthyridine-5(6H)-on dichloride anhydride]	increased within 30 minutes from the initial state	9.70%	10.18%	9.79%	9.72%	9.86%	0.40%										
CCOc1cc(CN2CCOCC2)cc2[nH]c(=O)c3c(c12)NCCC3.Cl.Cl [Comparative Example 2, 10-ethoxy-8-(morpholinomethyl)-1,2,3,4-tetrahydrobenzo[h][1,6]naphthyridine-5(6H)-on dichloride]								crystallinity thereof is increased	5.2%	0.4%							
CCOc1cc(CN2CCOCC2)cc2[nH]c(=O)c3c(c12)NCCC3 [Example 1, 10-ethoxy-8-(morpholinomethyl)-1,2,3,4-tetrahydrobenzo[h][1,6]naphthyridine-5(6H)-on dichloride dihydrate]								constant data without change of the XRD diffraction pattern			constant	8.75%	8.80%	8.79%	8.77%	8.81%	8.77%

Source: patent US9522911B2, “Crystalline forms of tricyclic compound acid salt or hydrate thereof, and method for making thereof” (Jeil Pharmaceutical Co., Ltd., priority 2012, dated 2016)
